Reference: patent publication US10501493B2, “Broad spectrum antibiotics” (priority 2011, dated 2019)
Values after ≈ are worked out from the molar mass of the structure shown. Read-outs that look alike come from different tables or passages of the source.

Assays:
[1] = target: T1, S. aureus SPase (Staphylococcus aureus, UniProt P0A070); assay: Steady state binding constant (Kd) determination by fluorescence increase
T1 construct: Full length His-tagged S. aureus SPase protein was expressed similarly; His-tag; made in house; host or cells: E. coli BL21(DE3)
Experimental: (§1) Full length His-tagged E. coli SPase proteins were expressed in E. coli BL21(DE3) containing the plasmid pET23-lepB, P. A. Smith et al. Chem Biol 2010, 1223-1231. Briefly, saturated overnight cultures grown in 20 ml of Luria-Bertani medium supplemented with ampicillin were subcultures into 1.5 L of Luria-Bertani, and shaken at 37° C. until an optical density at 600 nm of 0.4-0.5 was achieved. Protein expression was induced with Isopropyl β-D-1-thiogalactopyranoside (ITPG) at a final concentration of […], and purified using nickel affinity chromatography. Full length His-tagged S. aureus SPase protein was expressed similarly from E. coli BL21(DE3) containing the plasmid pCDF1-SaSpsB or pCDF1-SaSpsB(P29S) and purified similarly to the E. coli protein with the following exceptions. SPase protein was solubilized using 300 mM NaCl, 20 mM Tris pH 8.06, 5 mM Imidazole, 10% glycerol, 1% Triton X-100, prior to purification in Ni-NTA Superflow resin and resin bound protein was washed in a similar buffer containing 1% Elugent in place of Triton X-100 prior to protein eluted in wash buffer supplemented with 300 mM imidazole. Protein purify was judged to exceed 95% by visual inspection of SDS-PAGE followed by Comassie staining. All protein concentrations were determined by BCA assay.
(§2) Steady state binding constants (Kds) of compounds were determined by measuring an increase in fluorescence (λex=280 nm, λem=405 nm) that occurs upon binding to E. coli or S. aureus SPase protein. Two-fold serial dilutions of compounds were prepared in 100% DMSO, and compounds were diluted into binding buffer consisting of 100 mM NaCl, 20 mM Tris-HCl pH 7.4, 1 mM EDTA, 1% n-octyl-3-glucopyranoside (Anatrace), and 10% glycerol, with the final DMSO concentration equal to 1%. 70 μl of the resulting solutions containing various concentrations of compound in binding buffer were aliquoted into triplicate wells of a black polystyrene 384-well plate. 5 μl of blank solution or E. coli or S. aureus protein at concentrations of 750 or 3750 nM respectively, were added to each set of wells for a given inhibitor concentration. Plates were incubated for 14 hours and fluorescence read on an EnVision Multilable plate reader (Perkin Elmer™). Differences in fluorescence values between wells with and without protein were determined and background corrected for protein auto fluorescence. The corrected fluorescence difference data was fit to the quadratic equilibrium binding curve using the non-linear regression analysis software Solver (Frontline Systems®) run in Excel 2010, (Microsoft®), using experimentally determined quantum efficiency constants to convert fluorescence into nanomoles of protein/compound complex.

[2] = target: T2, E. coli SPase (Escherichia coli, UniProt P00803); assay: as above
T2 construct: Full length His-tagged E. coli SPase proteins were expressed in E. coli BL21(DE3); His-tag; made in house; host or cells: E. coli BL21(DE3)
Experimental: as §1, §2

[3] = system: E. coli MIG1655 LepB(P84L); assay: In vitro antimicrobial activity, MIC by broth micro-dilution; assay type: cell-based; details: Escherichia coli
How it was run: (§3)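 CLSI broth micro-dilution MIC against two-fold serial compound dilutions. Inoculum came from colonies grown 24 h at 35° C. or 28° C., suspended in cation-adjusted Mueller Hinton broth at 1*10^7 CFU/ml, of which 5 μl was added per 100 μl well. LepB(P84L) is a proline-mutant SPase strain with heightened arylomycin susceptibility.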

[4] = system: S. pneumoniae D39; assay: as above; assay type: cell-based; details: Streptococcus pneumoniae; S. pneumoniae D39; read-out: MIC
[5] = system: S. epidermidis RP62A; assay: as above; assay type: cell-based; details: Staphylococcus epidermidis; S. epidermidis RP62A; read-out: MIC
[6] = system: S. epidermidis RP62A SpsIB(S29P); assay: as above; assay type: cell-based; details: Staphylococcus epidermidis
[7] = system: S. epidermidis RP62A SpsIB(S31P); assay: as above; assay type: cell-based; details: Staphylococcus epidermidis
[8] = system: P. aeruginosa PA01 LepB(P84L); assay: as above; assay type: cell-based; details: Pseudomonas aeruginosa
How it was run: as §3

[9] = system: S. aureus NCTC-8325 SpsB(P295); assay: as above; assay type: cell-based; details: Staphylococcus aureus, NCTC8325
[10] = system: S. agalactiae COH-1; assay: as above; assay type: cell-based; details: Streptococcus agalactiae, COH1
[11] = system: R. equi DSM 6939; assay: as above; assay type: cell-based; details: Rhodococcus (subgen. Prescottella) equi, DSM6939, read-out: MIC
How it was run: as §3

[12] = system: S. pneumoniae R800; assay: as above; assay type: cell-based; details: Streptococcus pneumoniae, read-out: MIC
How it was run: as §3

[13] = system: S. pyogenes M15448; assay: as above; assay type: cell-based; details: Streptococcus pyogenes
How it was run: as §3

[14] = system: S. epidermidis ATCC 12228; assay: as above; assay type: cell-based; details: Staphylococcus epidermidis, ATCC12228, read-out: MIC
[15] = system: S. aureus ATCC 29213; assay: as above; assay type: cell-based; details: Staphylococcus aureus, ATCC29213, read-out: MIC
[16] = system: S. pyogenes ATCC 19615; assay: as above; assay type: cell-based; details: Streptococcus pyogenes, ATCC19615, read-out: MIC
[17] = system: S. agalactiae ATCC 13813; assay: as above; assay type: cell-based; details: Streptococcus agalactiae, ATCC13813, read-out: MIC
[18] = system: C. glutamicum DSM 44475; assay: as above; assay type: cell-based; details: Corynebacterium glutamicum, DSM44475, read-out: MIC

SMILES | Kd [1] [nM] | Kd [2] [nM] | MIC [3] [µg/mL] | MIC [4] [µg/mL] | MIC [5] [µg/mL] | MIC [6] [µg/mL] | MIC [7] [µg/mL] | MIC [8] [µg/mL] | MIC [9] [µg/mL] | MIC ([10]; S. agalactiae COH-1, read-out: MIC) [µg/mL] | MIC [11] [µg/mL] | MIC [12] [µg/mL] | MIC ([13]; S. pyogenes M15448, read-out: MIC) [µg/mL] | MIC [14] [µg/mL] | MIC [15] [µg/mL] | MIC [16] [µg/mL] | MIC [17] [µg/mL] | MIC [18] [µg/mL] | MIC [10] [µg/mL] | MIC ([13]; M15448) [µg/mL]
CCCCCCCCCCCCCCCC(=O)N(C)[C@H](CO)C(=O)N[C@H](C)C(=O)NCC(=O)N(C)[C@@H]1C(=O)N[C@@H](C)C(=O)N[C@H](C(=O)NC)Cc2ccc(O)c(c2)-c2cc1ccc2O [Compound 12] | 600 | 240 | 8 (≈ 8.95 µM) | > 64 | 2 (≈ 2.24 µM) | 64 (≈ 71.6 µM) | > 64 | > 64 |  |  |  |  |  |  |  |  |  |  |  | 
CCCCCCCCCCCCCCCC(=O)N(C)[C@H](CO)C(=O)N[C@H](C)C(=O)NCC(=O)N(C)[C@@H]1C(=O)N[C@@H](C)C(=O)N[C@H](C(=O)NCC(=O)N2CCCC2C(N)=O)Cc2ccc(O)c(c2)-c2cc1ccc2O (stereo partly shown) [Compound 27] |  |  | 8 (≈ 7.73 µM) | 16 (≈ 15.5 µM) | 8 (≈ 7.73 µM) | > 64 | > 64 | > 64 | > 64 | 32 (≈ 30.9 µM) | > 64 | 32 (≈ 30.9 µM) | 32 (≈ 30.9 µM) | 32 (≈ 30.9 µM) | > 64 | 32 (≈ 30.9 µM) | 32 (≈ 30.9 µM) | 32 (≈ 30.9 µM) |  | 
CCCCCCCCCCCCCCCC(=O)N(C)[C@H](CO)C(=O)N[C@H](C)C(=O)NCC(=O)N(C)[C@@H]1C(=O)N[C@@H](C)C(=O)N[C@H](C(=O)N(C)C)Cc2ccc(O)c(c2)-c2cc1ccc2O [Compound 13] | > 100000 | 2000 | 16 (≈ 17.6 µM) | > 64 | 64 (≈ 70.5 µM) | > 64 | > 64 | > 64 |  |  |  |  |  |  |  |  |  |  |  | 
CCCCCCCCCCCCCCCC(=O)N(C)[C@H](CO)C(=O)N[C@H](C)C(=O)NCC(=O)N(C)[C@@H]1C(=O)N[C@@H](C)C(=O)N[C@H](C(=O)NS(C)(=O)=O)Cc2ccc(O)c(c2)-c2cc1ccc2O [Compound 22] | 19000 | 1000 | 16 (≈ 16.7 µM) | 16 (≈ 16.7 µM) | 2 (≈ 2.09 µM) | > 64 | > 64 | > 64 | > 64 |  |  | 16 (≈ 16.7 µM) |  | > 64 | > 64 | 16 (≈ 16.7 µM) | 32 (≈ 33.4 µM) | 8 (≈ 8.35 µM) | > 64 | 16 (≈ 16.7 µM)
CCCCCCCCCCCCCCCC(=O)N(C)[C@H](CO)C(=O)N[C@H](C)C(=O)NCC(=O)N(C)[C@@H]1C(=O)N[C@@H](C)C(=O)N[C@H](C(=O)N[C@@H](C)C(=O)N2CCCC2C(N)=O)Cc2ccc(O)c(c2)-c2cc1ccc2O (stereo partly shown) [Compound 14] | 600 | 2800 | 16 (≈ 15.3 µM) | 8 (≈ 7.63 µM) | 2 (≈ 1.91 µM) | > 64 | > 64 | > 64 | 8 (≈ 7.63 µM) |  |  |  |  |  |  |  |  |  |  | 
